What was measured:
Experiment in all cases: relative viability (nuclei count vs DMSO), 5 days (fraction); higher = more cells survive
[1] = compound: CNC(=O)c1ccccc1Sc1ccc2c(/C=C/c3ccccn3)n[nH]c2c1 [Axitinib] + O=C(CCCCCCC(=O)Nc1ccccc1)NO [Vorinostat] (partner 1 µM)
Procedure, shortened: (§1)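 After 5 days of treatment, lung cancer cells in 1536-well plates were fixed and stained in a single step (final 0.05% Triton X-100, 1% formaldehyde, 1 ug/ml Hoechst) and their nuclei counted on 4× images. Treatment had been applied by pin tool the day after seeding as one drug alone or as a fixed anchor-drug dose with five library-drug doses (not always all listed) in √10 steps. Relative viability is the nuclei count of treated wells divided by that of vehicle wells, and values are medians of duplicate plates.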

[2] = compound: CC1=CC=C(C=C1)C(=O)CN2C3=C(CCCC3)SC2=N [Pifithrin_alpha] + Cc1nc(NC(=O)N2CCC[C@H]2C(N)=O)sc1-c1ccnc(C(C)(C)C(F)(F)F)c1 [Alpelisib] (partner 2 µM)
Procedure, shortened: as §1

[3] = compound: CNC(=O)c1ccccc1Sc1ccc2c(/C=C/c3ccccn3)n[nH]c2c1 [Axitinib] + CC(=O)Nc1cccc(-n2c(=O)n(C3CC3)c(=O)c3c(Nc4ccc(I)cc4F)n(C)c(=O)c(C)c32)c1 [Trametinib] (partner 0.02 µM)
Procedure, shortened: as §1

[4] = compound: Nc1nc(Nc2ccc3c(c2)CC[C@@H](N2CCCC2)CC3)nn1-c1cc2c(nn1)-c1ccccc1CCC2 [Bemcentinib] + Cc1nc(Nc2ncc(C(=O)Nc3c(C)cccc3Cl)s2)cc(N2CCN(CCO)CC2)n1 [Dasatinib] (partner 0.075 µM)
Procedure, shortened: as §1

## LCLC-103H
[1]; first compound 0.005 µM
  relative viability: 0.767
[1]; first compound 0.01581 µM
  relative viability: 0.801
[1]; first compound 0.05 µM
  relative viability: 0.808
[1]; first compound 0.1581 µM
  relative viability: 0.75
[1]; first compound 0.5 µM
  relative viability: 0.759
[2]; first compound 1 µM
  relative viability: 0.971
[2]; first compound 3.162 µM
  relative viability: 0.992
[2]; first compound 10 µM
  relative viability: 1.1
[2]; first compound 31.62 µM
  relative viability: 0.931
[2]; first compound 100 µM
  relative viability: 0.939
[3]; first compound 0.005 µM
  relative viability: 0.737
[3]; first compound 0.01581 µM
  relative viability: 0.651
[3]; first compound 0.05 µM
  relative viability: 0.685
[3]; first compound 0.1581 µM
  relative viability: 0.705
[3]; first compound 0.5 µM
  relative viability: 0.693
[4]; first compound 0.04 µM
  relative viability: 0.419
[4]; first compound 0.1265 µM
  relative viability: 0.192
[4]; first compound 0.4 µM
  relative viability: 0.478
[4]; first compound 1.265 µM
  relative viability: 0.393
[4]; first compound 4 µM
  relative viability: 0.531

## NCI-H441
[1]; first compound 0.005 µM
  relative viability: 0.78
[1]; first compound 0.01581 µM
  relative viability: 0.659
[1]; first compound 0.05 µM
  relative viability: 0.855
[1]; first compound 0.1581 µM
  relative viability: 0.627
[1]; first compound 0.5 µM
  relative viability: 0.911
[2]; first compound 1 µM
  relative viability: 0.942
[2]; first compound 3.162 µM
  relative viability: 0.859
[2]; first compound 10 µM
  relative viability: 0.673
[2]; first compound 31.62 µM
  relative viability: 0.708
[2]; first compound 100 µM
  relative viability: 0.85
[3]; first compound 0.005 µM
  relative viability: 0.521
[3]; first compound 0.01581 µM
  relative viability: 0.404
[3]; first compound 0.05 µM
  relative viability: 0.331
[3]; first compound 0.1581 µM
  relative viability: 0.485
[3]; first compound 0.5 µM
  relative viability: 0.567
[4]; first compound 0.04 µM
  relative viability: 0.536
[4]; first compound 0.1265 µM
  relative viability: 0.773
[4]; first compound 0.4 µM
  relative viability: 0.862
[4]; first compound 1.265 µM
  relative viability: 0.649
[4]; first compound 4 µM
  relative viability: 0.609

## LOU-NH91
[1]; first compound 0.005 µM
  relative viability: 0.966
[1]; first compound 0.01581 µM
  relative viability: 0.765
[1]; first compound 0.05 µM
  relative viability: 1.01
[1]; first compound 0.1581 µM
  relative viability: 0.875
[1]; first compound 0.5 µM
  relative viability: 0.939
[2]; first compound 1 µM
  relative viability: 0.63
[2]; first compound 3.162 µM
  relative viability: 0.637
[2]; first compound 10 µM
  relative viability: 0.635
[2]; first compound 31.62 µM
  relative viability: 0.616
[2]; first compound 100 µM
  relative viability: 0.583
[3]; first compound 0.005 µM
  relative viability: 0.778
[3]; first compound 0.01581 µM
  relative viability: 0.732
[3]; first compound 0.05 µM
  relative viability: 0.807
[3]; first compound 0.1581 µM
  relative viability: 0.766
[3]; first compound 0.5 µM
  relative viability: 0.818
[4]; first compound 0.04 µM
  relative viability: 0.508
[4]; first compound 0.1265 µM
  relative viability: 0.568
[4]; first compound 0.4 µM
  relative viability: 0.59
[4]; first compound 1.265 µM
  relative viability: 0.335
[4]; first compound 4 µM
  relative viability: 0.61

## NCI-H647
[1]; first compound 0.005 µM
  relative viability: 0.63
[1]; first compound 0.01581 µM
  relative viability: 0.71
[1]; first compound 0.05 µM
  relative viability: 0.572
[1]; first compound 0.1581 µM
  relative viability: 0.548
[1]; first compound 0.5 µM
  relative viability: 0.605
[2]; first compound 1 µM
  relative viability: 1.07
[2]; first compound 3.162 µM
  relative viability: 1.06
[2]; first compound 10 µM
  relative viability: 0.992
[2]; first compound 100 µM
  relative viability: 0.736
[3]; first compound 0.005 µM
  relative viability: 0.587
[3]; first compound 0.01581 µM
  relative viability: 0.484
[3]; first compound 0.05 µM
  relative viability: 0.49
[3]; first compound 0.1581 µM
  relative viability: 0.407
[3]; first compound 0.5 µM
  relative viability: 0.506
[4]; first compound 0.04 µM
  relative viability: 0.169
[4]; first compound 0.1265 µM
  relative viability: 0.213
[4]; first compound 0.4 µM
  relative viability: 0.211
[4]; first compound 1.265 µM
  relative viability: 0.186
[4]; first compound 4 µM
  relative viability: 0.136

## NCI-H1915
[1]; first compound 0.005 µM
  relative viability: 0.552
[1]; first compound 0.01581 µM
  relative viability: 0.516
[1]; first compound 0.05 µM
  relative viability: 0.508
[1]; first compound 0.1581 µM
  relative viability: 0.536
[1]; first compound 0.5 µM
  relative viability: 0.517
[2]; first compound 1 µM
  relative viability: 0.979
[2]; first compound 3.162 µM
  relative viability: 1.11
[2]; first compound 10 µM
  relative viability: 1.05
[2]; first compound 100 µM
  relative viability: 1.12
[3]; first compound 0.005 µM
  relative viability: 0.34
[3]; first compound 0.01581 µM
  relative viability: 0.299
[3]; first compound 0.05 µM
  relative viability: 0.312
[3]; first compound 0.1581 µM
  relative viability: 0.298
[3]; first compound 0.5 µM
  relative viability: 0.33
[4]; first compound 0.04 µM
  relative viability: 0.304
[4]; first compound 0.1265 µM
  relative viability: 0.302
[4]; first compound 0.4 µM
  relative viability: 0.307
[4]; first compound 1.265 µM
  relative viability: 0.332
[4]; first compound 4 µM
  relative viability: 0.331

## NCI-H1944
[1]; first compound 0.005 µM
  relative viability: 0.616
[1]; first compound 0.01581 µM
  relative viability: 0.54
[1]; first compound 0.05 µM
  relative viability: 0.585
[1]; first compound 0.1581 µM
  relative viability: 0.498
[1]; first compound 0.5 µM
  relative viability: 0.518
[2]; first compound 1 µM
  relative viability: 0.866
[2]; first compound 3.162 µM
  relative viability: 0.762
[2]; first compound 10 µM
  relative viability: 0.72
[2]; first compound 100 µM
  relative viability: 0.75
[3]; first compound 0.005 µM
  relative viability: 0.562
[3]; first compound 0.01581 µM
  relative viability: 0.388
[3]; first compound 0.05 µM
  relative viability: 0.451
[3]; first compound 0.1581 µM
  relative viability: 0.39
[3]; first compound 0.5 µM
  relative viability: 0.434
[4]; first compound 0.04 µM
  relative viability: 0.206
[4]; first compound 0.1265 µM
  relative viability: 0.202
[4]; first compound 0.4 µM
  relative viability: 0.214
[4]; first compound 1.265 µM
  relative viability: 0.204
[4]; first compound 4 µM
  relative viability: 0.2

## HARA
[1]; first compound 0.005 µM
  relative viability: 0.533
[1]; first compound 0.01581 µM
  relative viability: 0.559
[1]; first compound 0.05 µM
  relative viability: 0.526
[1]; first compound 0.5 µM
  relative viability: 0.655
[2]; first compound 1 µM
  relative viability: 0.757
[2]; first compound 3.162 µM
  relative viability: 0.794
[2]; first compound 10 µM
  relative viability: 0.856
[2]; first compound 31.62 µM
  relative viability: 0.638
[2]; first compound 100 µM
  relative viability: 0.519
[3]; first compound 0.005 µM
  relative viability: 0.727
[3]; first compound 0.01581 µM
  relative viability: 0.707
[3]; first compound 0.05 µM
  relative viability: 0.768
[3]; first compound 0.1581 µM
  relative viability: 0.618
[3]; first compound 0.5 µM
  relative viability: 0.949
[4]; first compound 0.04 µM
  relative viability: 0.124
[4]; first compound 0.1265 µM
  relative viability: 0.27
[4]; first compound 0.4 µM
  relative viability: 0.253
[4]; first compound 1.265 µM
  relative viability: 0.221
[4]; first compound 4 µM
  relative viability: 0.21

## NCI-H2347
[1]; first compound 0.005 µM
  relative viability: 0.638
[1]; first compound 0.01581 µM
  relative viability: 0.55
[1]; first compound 0.05 µM
  relative viability: 0.513
[1]; first compound 0.1581 µM
  relative viability: 0.664
[1]; first compound 0.5 µM
  relative viability: 0.619
[2]; first compound 1 µM
  relative viability: 0.952
[2]; first compound 3.162 µM
  relative viability: 0.993
[2]; first compound 10 µM
  relative viability: 0.991
[2]; first compound 31.62 µM
  relative viability: 0.682
[2]; first compound 100 µM
  relative viability: 1.1
[3]; first compound 0.005 µM
  relative viability: 0.257
[3]; first compound 0.01581 µM
  relative viability: 0.292
[3]; first compound 0.05 µM
  relative viability: 0.427
[3]; first compound 0.1581 µM
  relative viability: 0.279
[3]; first compound 0.5 µM
  relative viability: 0.318
[4]; first compound 0.04 µM
  relative viability: 0.322
[4]; first compound 0.1265 µM
  relative viability: 0.288
[4]; first compound 0.4 µM
  relative viability: 0.327
[4]; first compound 1.265 µM
  relative viability: 0.269
[4]; first compound 4 µM
  relative viability: 0.308

From the supplement of paper PMC10307832
